Active and inactive are the calls of the source.
What was measured:
A549 = test: A549 cell toxicity, dose response, cytotoxicity control, plate reader, cherry-pick samples (AID 687028); format: functional, cell-based; conditions: Homo sapiens
[1] = MDA-MB-231 cell growth inhibition, dose response, cytotoxicity control for RAD54 inhibitor project, CellTiter-Glo luminescence, cherry-pick (AID 651692); format: functional, cell-based
[2] = target: T1, DNA repair and recombination protein RAD54-like (Homo sapiens, UniProt Q92698); test: inhibitors of human RAD54 branch migration, confirmation, biochemical, fluorescence, cherry-picked samples, dose series (AID 651657); format: functional
T1 sequence (Q92698 whole entry): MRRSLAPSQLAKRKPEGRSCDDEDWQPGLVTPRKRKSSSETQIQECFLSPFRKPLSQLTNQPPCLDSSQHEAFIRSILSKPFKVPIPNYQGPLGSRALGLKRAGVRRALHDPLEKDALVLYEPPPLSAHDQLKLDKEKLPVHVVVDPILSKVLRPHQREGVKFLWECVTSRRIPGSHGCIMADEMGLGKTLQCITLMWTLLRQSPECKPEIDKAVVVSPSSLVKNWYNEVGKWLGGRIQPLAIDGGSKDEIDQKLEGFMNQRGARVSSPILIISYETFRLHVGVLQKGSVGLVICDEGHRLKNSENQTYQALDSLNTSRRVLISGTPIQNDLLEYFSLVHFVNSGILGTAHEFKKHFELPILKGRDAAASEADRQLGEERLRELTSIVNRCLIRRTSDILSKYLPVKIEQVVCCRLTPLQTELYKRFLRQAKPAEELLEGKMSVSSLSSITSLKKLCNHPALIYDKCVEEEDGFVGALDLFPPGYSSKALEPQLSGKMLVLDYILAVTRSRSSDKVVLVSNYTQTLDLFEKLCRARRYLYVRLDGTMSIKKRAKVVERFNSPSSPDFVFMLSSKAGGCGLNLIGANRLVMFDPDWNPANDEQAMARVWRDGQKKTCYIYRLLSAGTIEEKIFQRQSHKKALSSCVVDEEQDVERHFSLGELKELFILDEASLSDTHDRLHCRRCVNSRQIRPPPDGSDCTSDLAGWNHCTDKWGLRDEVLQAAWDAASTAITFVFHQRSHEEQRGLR

[3] = HEp-2 cell cytotoxicity, dose response, cytotoxicity control for RSV inhibitor project, HTS (AID 2410); format: functional; conditions: human respiratory syncytial virus
Vero = test: host cell cytotoxicity of antiviral hits, dose response, cytotoxicity control for West Nile virus antiviral project, secondary assay (AID 1650); format: functional; conditions: Chlorocebus sabaeus
Beta-lactamase [4] = target: T2, Beta-lactamase (Pseudomonas aeruginosa, UniProt Q79MP6); test: […] counterscreen for selective VIM-2 inhibitors: dose response biochemical high throughput screening assay to identify inhibitors of IMP-1 metallo-beta-lactamase.
T2 sequence (Q79MP6 whole entry): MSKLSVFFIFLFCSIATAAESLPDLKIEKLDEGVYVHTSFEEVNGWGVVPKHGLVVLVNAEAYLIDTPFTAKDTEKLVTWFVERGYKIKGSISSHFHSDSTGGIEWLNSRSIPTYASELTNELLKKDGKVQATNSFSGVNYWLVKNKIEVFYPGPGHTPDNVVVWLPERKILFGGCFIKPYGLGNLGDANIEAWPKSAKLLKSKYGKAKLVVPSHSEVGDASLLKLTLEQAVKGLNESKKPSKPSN

Beta-lactamase [5] = target: Beta-lactamase (Salmonella choleraesuis (strain SC-B67), UniProt Q5J463); test: Epi-absorbance-based counterscreen for selective VIM-2 inhibitors: dose response biochemical high throughput screening assay to identify inhibitors of TEM-1 serine-beta-lactamase.
Sequence of Beta-lactamase (Salmonella choleraesuis (strain SC-B67), UniProt Q5J463) (Q5J463 whole entry): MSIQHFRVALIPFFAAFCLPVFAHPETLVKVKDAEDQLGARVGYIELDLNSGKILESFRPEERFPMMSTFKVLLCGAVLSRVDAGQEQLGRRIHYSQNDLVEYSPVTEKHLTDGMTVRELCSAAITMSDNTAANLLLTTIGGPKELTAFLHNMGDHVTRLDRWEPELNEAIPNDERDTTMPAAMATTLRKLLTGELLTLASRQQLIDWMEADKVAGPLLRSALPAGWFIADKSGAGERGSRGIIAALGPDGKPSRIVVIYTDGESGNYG

Beta-lactamase [6] = target: T2, Beta-lactamase; test: IMP-1 metallo-beta-lactamase inhibitors, dose response, selectivity assay for VIM-2 inhibitor project, biochemical, epi-absorbance (AID 1920)
Beta Lactamase [7] = target: T3, Beta Lactamase (Pseudomonas aeruginosa, UniProt Q932Y6); test: VIM-2 metallo-beta-lactamase inhibitor potency, dose response, biochemical, epi-absorbance readout, selective inhibitors (AID 1919)
T3 sequence (Q932Y6 whole entry): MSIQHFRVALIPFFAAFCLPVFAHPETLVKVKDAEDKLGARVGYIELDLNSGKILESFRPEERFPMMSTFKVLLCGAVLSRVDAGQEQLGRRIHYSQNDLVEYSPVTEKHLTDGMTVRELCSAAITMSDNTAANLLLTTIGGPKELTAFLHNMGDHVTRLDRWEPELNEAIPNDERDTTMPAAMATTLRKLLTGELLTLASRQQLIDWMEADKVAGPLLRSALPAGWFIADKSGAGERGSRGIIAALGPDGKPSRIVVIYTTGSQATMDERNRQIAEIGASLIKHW

Beta Lactamase [8] = target: T3, Beta Lactamase; test: VIM-2 inhibitor FRET-based artefact check, dose response, artefact control for selective VIM-2 inhibitor project, biochemical, FRET readout, CCF2 substrate (AID 1926)
[9] = MC4R antagonists, dose response, counter-screen for LGR2 antagonist project, cell-based, plate reader, cherry pick (AID 743444); format: functional;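 also: transfected HEK 293 cells stimulated with alpha-MSH peptide; potency of inhibitors of the alpha-MSH evoked signal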
[10] = inhibitors of SNCA 5'UTR-driven translation, confirmation, luminescence, H4 neuroglioblastoma cells, dose confirmation (AID 2454); format: functional, cell-based;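 also: H4 neuroglioblastoma cells carrying an alpha-synuclein 5'UTR luciferase reporter; potency for inhibition of the luciferase signal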
[11] = luciferase reporter signal reduction – luminescence, H4-C neuroglioblastoma cells, dose response (AID 2458); format: functional, cell-based;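 also: H4 neuroglioblastoma cells stably carrying a luciferase reporter gene fusion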
[12] = A549 cell cytotoxicity, dose response, cytotoxicity control, plate reader, cherry-pick, antagonist series (AID 743412); format: functional, cell-based
[13] = HepG2 cell cytotoxicity, dose response, cytotoxicity control, plate reader, cherry-pick, antagonist series (AID 743416); format: functional, cell-based
[14] = target: T4, Heat shock factor protein 1 (Mus musculus, UniProt P38532); test: inhibition of MG132-induced HSE-luciferase signal, confirmation, cell-based, NIH3T3, luminescence, dose retest (AID 2382); format: functional;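 also: NIH3T3 fibroblasts with HSF1-driven luciferase reporter stressed by proteasome inhibitor MG132; luminescence from HSF1-driven luciferase expression after 8 hours of MG132 stress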
T4 sequence (P38532 whole entry): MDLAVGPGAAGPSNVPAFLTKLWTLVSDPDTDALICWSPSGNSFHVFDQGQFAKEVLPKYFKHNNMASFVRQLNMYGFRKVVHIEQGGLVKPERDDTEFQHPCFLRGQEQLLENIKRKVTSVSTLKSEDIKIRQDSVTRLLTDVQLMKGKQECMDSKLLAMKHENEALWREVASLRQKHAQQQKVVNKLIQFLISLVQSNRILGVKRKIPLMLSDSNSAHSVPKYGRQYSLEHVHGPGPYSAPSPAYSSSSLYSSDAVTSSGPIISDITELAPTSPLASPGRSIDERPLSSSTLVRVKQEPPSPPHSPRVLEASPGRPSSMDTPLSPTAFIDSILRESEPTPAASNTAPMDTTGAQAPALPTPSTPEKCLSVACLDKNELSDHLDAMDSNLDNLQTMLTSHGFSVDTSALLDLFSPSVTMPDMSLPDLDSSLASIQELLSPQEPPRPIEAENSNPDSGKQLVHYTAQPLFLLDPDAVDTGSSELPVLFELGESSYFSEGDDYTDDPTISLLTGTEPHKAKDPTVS

[15] = Luminescence Cell-Based Dose Response HTS to Identify Inhibitors of 5'UTR Stem-Loop Driven Prion Protein mRNA Translation in H4 Neuroglioblastoma Cells. [Related pubchem assays: 1827 (Project Summary), 1813 (Primary HTS)]; format: functional
[16] = target: Photoreceptor-specific nuclear receptor (Homo sapiens, UniProt Q9Y5X4); format: functional, cell-based;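 also: CHO-S cells with Gal4-NCOR and VP16-NR2E3 two-hybrid luciferase reporter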
Sequence of Photoreceptor-specific nuclear receptor (Q9Y5X4 whole entry, the tested form may be a part): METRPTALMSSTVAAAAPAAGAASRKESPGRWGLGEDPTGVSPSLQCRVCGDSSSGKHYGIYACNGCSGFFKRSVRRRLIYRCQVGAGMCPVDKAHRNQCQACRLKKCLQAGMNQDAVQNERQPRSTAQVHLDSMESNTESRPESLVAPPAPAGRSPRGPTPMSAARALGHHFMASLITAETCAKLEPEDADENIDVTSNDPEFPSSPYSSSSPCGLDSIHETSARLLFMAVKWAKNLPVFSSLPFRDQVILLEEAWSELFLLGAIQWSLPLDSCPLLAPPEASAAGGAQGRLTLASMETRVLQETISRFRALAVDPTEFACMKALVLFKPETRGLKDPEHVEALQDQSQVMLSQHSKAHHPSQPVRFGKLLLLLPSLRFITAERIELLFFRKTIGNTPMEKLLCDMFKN

cells [17] = format: functional, cell-based
[18] = HEK293 cell cytotoxicity, dose response, cytotoxicity control, plate reader, cherry-picked samples (AID 743446); format: functional, cell-based
[19] = inhibitors of SNCA 5'UTR-driven reporter translation, confirmation, H4 neuroglioma cells, luminescence (AID 1988); format: functional, cell-based
[20] = LGR2 antagonists, dose response, cell-based, HEK293, CRE-luciferase reporter, cherry pick, set 2 (AID 743343); format: functional;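 also: transfected cells were stimulated with diluted bursicon conditioned medium after compound addition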
[21] = miR-122 activators in hepatoma reporter cells, dose response, cell-based, Huh7 psiCHECK-miR122, Renilla luciferase, cherry-picked (AID 651956); format: functional;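 also: huh7 hepatoma cells stably carrying a psiCHECK-2 miR-122 sensor plasmid; renilla luciferase signal reporting endogenous miR-122 activity after 48 h compound exposure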
cells [22] = format: functional, cell-based; remark: listed apart in the source
cells [23] = format: functional, cell-based; remark: listed apart in the source
[24] = target: T5, Trace amine-associated receptor 1 (Homo sapiens, UniProt Q96RJ0); test: Counterscreen for agonists of the human trace amine associated receptor 1 (hTAAR1): Fluorescence-based cell-based high throughput dose response assay to identify hTAAR1 agonist that also desensitize TAAR1 receptor response.; format: functional
T5 sequence (Q96RJ0 whole entry): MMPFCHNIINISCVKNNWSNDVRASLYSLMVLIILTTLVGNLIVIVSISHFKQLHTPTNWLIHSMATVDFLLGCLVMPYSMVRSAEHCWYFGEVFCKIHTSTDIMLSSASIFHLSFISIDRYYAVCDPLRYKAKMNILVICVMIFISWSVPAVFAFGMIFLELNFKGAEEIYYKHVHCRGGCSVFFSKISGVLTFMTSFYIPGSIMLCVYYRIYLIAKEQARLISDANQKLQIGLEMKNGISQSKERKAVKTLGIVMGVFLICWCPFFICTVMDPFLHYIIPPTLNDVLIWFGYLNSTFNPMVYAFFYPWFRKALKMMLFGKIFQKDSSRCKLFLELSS

[25] = target: T5, Trace amine-associated receptor 1; test: Fluorescence-based cell-based high throughput dose response assay to identify agonists of the human trace amine associated receptor 1 (TAAR1).; format: functional

## CN1CCCC1CCNc1ccc2sc3ccccc3c(=O)c2c1 (configuration not stated)
A549
  AC50: 20.2 µM (active)
[1]
  AC50: 48.8 µM (active)
[2]
  AC50: 13.6 µM (active)
[3]
  CC50: 11.5 µM (active)
Vero
  CC50: 21.1 µM (active)

## O=C(C1=C(O)C(=O)N(Cc2cccnc2)C1c1ccccn1)c1ccccc1 (configuration not stated)
Beta-lactamase [4]
  IC50: > 59.6 µM (inactive)
Beta-lactamase [5]
  IC50: > 59.6 µM (inactive)
Beta-lactamase [6]
  IC50: > 59.6 µM (inactive)
Beta Lactamase [7]
  IC50: 5 µM (active)
Beta Lactamase [8]
  IC50: 2.17 µM (active)

## Cc1cc(C(=O)Nc2ccc(Cl)cc2)c(C)n1-c1ccccc1
[9]
  AC50: < 0.068 µM (active)
[10]
  EC50: 0.149 µM (active)
[11]
  EC50: 0.409 µM (active)
[12]
  AC50: > 52 µM (inactive)
[13]
  AC50: > 52 µM (inactive)
[14]
  EC50: < 0.16 µM (active)
[15]
  EC50: 8.36 µM (active)
[16]
  IC50: 0.017 µM (active)
Cells [17]
  EC50: 1.43 µM (active)
[18]
  AC50: > 52 µM (inactive)
[19]
  EC50: < 0.1 µM (active)
[20]
  AC50: < 0.068 µM (active)

## CC(C)(C)c1ccc(S(=O)(=O)NCCc2ccncc2)cc1
[21]
  AC50: 25 µM (active)

## O=C(O)/C=C/C(=O)NCCC1=CCCCC1
Cells [22]
  EC50: > 29.9 µM (inactive)
Cells [23]
  IC50: > 29.9 µM (inactive)
[24]
  IC50: 7.65 µM (active)
[25]
  EC50: 1.39 µM (active)

— ChEMBL document CHEMBL1201862, “PubChem BioAssay data set” (2004)
